{"source": "paper PMC5218480", "about": "(PLoS ONE, 2017)", "tested_on": "MV-4-11 cells", "experiment": "Gene expression microarray analysis (Affymetrix PrimeView) and GSEA", "type": "cell-based, human", "design": "RFU PODN (11730768_x_at) / Fold change /veh PODN (11730768_x_at) / RFU LINC00158 (11744669_a_at) / Fold change /veh LINC00158 (11744669_a_at) / RFU DUSP10 (11751237_a_at) / Fold change /veh DUSP10 (11751237_a_at) / RFU ID3 (11757404_x_at) / Fold change /veh ID3 (11757404_x_at) / RFU PLEKHG5 (11737974_s_at) / Fold change /veh PLEKHG5 (11737974_s_at) / RFU LRRC4B (11730491_at) / Fold change /veh LRRC4B (11730491_at) / RFU GIMAP4 (11747438_a_at) / Fold change /veh GIMAP4 (11747438_a_at) / RFU KRT8 (11758183_x_at) / Fold change /veh KRT8 (11758183_x_at) / RFU CNN1 (11734310_a_at) / Fold change /veh CNN1 (11734310_a_at) / RFU VPS37D (11726825_at) / Fold change /veh VPS37D (11726825_at) / RFU C10orf10 (11716522_x_at) / Fold change /veh C10orf10 (11716522_x_at) / RFU KIR2DL2 /// KIR2DL4 /// KIR2DL5A /// KIR2DL5B /// KIR2DS1 /// KIR2DS2 /// KIR2DS3 /// KIR2DS4 /// KIR3DL3 /// KIR3DL3 /// KIR3DS1 (11738374_at) / Fold change /veh KIR2DL2 /// KIR2DL4 /// KIR2DL5A /// KIR2DL5B /// KIR2DS1 /// KIR2DS2 /// KIR2DS3 /// KIR2DS4 /// KIR3DL3 /// KIR3DL3 /// KIR3DS1 (11738374_at) / RFU C1QL1 (11718748_at) / Fold change /veh C1QL1 (11718748_at) / RFU TMPRSS4 (11747572_a_at) / Fold change /veh TMPRSS4 (11747572_a_at) / RFU HAMP (11756126_x_at) / Fold change /veh HAMP (11756126_x_at) / RFU RNFT2 (11725882_a_at) / Fold change /veh RNFT2 (11725882_a_at) / RFU NR4A2 (11747474_a_at) / Fold change /veh NR4A2 (11747474_a_at) / RFU ABCC12 (11746883_a_at) / Fold change /veh ABCC12 (11746883_a_at) / RFU TMEM136 (11760407_x_at) / Fold change /veh TMEM136 (11760407_x_at) / RFU CLDN22 /// WWC2 (11732394_at) / Fold change /veh CLDN22 /// WWC2 (11732394_at) / RFU HLA-DPB1 (11760878_x_at) / Fold change /veh HLA-DPB1 (11760878_x_at) / RFU SPINT1 (11716480_a_at) / Fold change /veh SPINT1 (11716480_a_at) / RFU GAP43 (11754022_s_at) / Fold change /veh GAP43 (11754022_s_at) / RFU A4GNT (11735810_at) / Fold change /veh A4GNT (11735810_at) / RFU PRB3 (11715151_x_at) / Fold change /veh PRB3 (11715151_x_at) / RFU TUBB4B (11761932_at) / Fold change /veh TUBB4B (11761932_at) / RFU CAPN14 (11732068_a_at) / Fold change /veh CAPN14 (11732068_a_at) / RFU TMCC2 (11721928_a_at) / Fold change /veh TMCC2 (11721928_a_at) / RFU IRGQ (11745062_a_at) / Fold change /veh IRGQ (11745062_a_at) / RFU FAM174B (11720279_a_at) / Fold change /veh FAM174B (11720279_a_at) / RFU TMPRSS4 (11748680_a_at) / Fold change /veh TMPRSS4 (11748680_a_at) / RFU FAM212B (11763350_a_at) / Fold change /veh FAM212B (11763350_a_at) / RFU PLEKHG5 (11743358_a_at) / Fold change /veh PLEKHG5 (11743358_a_at) / RFU ZSCAN30 (11745921_a_at) / Fold change /veh ZSCAN30 (11745921_a_at) / RFU CMKLR1 (11741424_a_at) / Fold change /veh CMKLR1 (11741424_a_at) / RFU LOC101060620 /// MAPK8IP1 (11723275_at) / Fold change /veh LOC101060620 /// MAPK8IP1 (11723275_at) / RFU SPTSSB (11747773_x_at) / Fold change /veh SPTSSB (11747773_x_at) / RFU PRSS12 (11739890_at) / Fold change /veh PRSS12 (11739890_at) / RFU BIN1 (11741810_x_at) / Fold change /veh BIN1 (11741810_x_at) / RFU WNT11 (11732464_a_at) / Fold change /veh WNT11 (11732464_a_at) / RFU C10orf10 (11716521_a_at) / Fold change /veh C10orf10 (11716521_a_at) / RFU C5orf56 (11738089_at) / Fold change /veh C5orf56 (11738089_at) / RFU CYB561 (11721691_x_at) / Fold change /veh CYB561 (11721691_x_at) / RFU ANKRD19P (11752326_a_at) / Fold change /veh ANKRD19P (11752326_a_at) / RFU OR2T12 /// OR2T33 /// OR2T8 (11738714_s_at) / Fold change /veh OR2T12 /// OR2T33 /// OR2T8 (11738714_s_at) / RFU VCAN (11748164_a_at) / Fold change /veh VCAN (11748164_a_at) / RFU JSRP1 (11732532_at) / Fold change /veh JSRP1 (11732532_at) / RFU KRTAP10-11 (11738290_x_at) / Fold change /veh KRTAP10-11 (11738290_x_at) / RFU MYO3A (11730013_a_at) / Fold change /veh MYO3A (11730013_a_at) / RFU EBF3 (11725865_a_at) / Fold change /veh EBF3 (11725865_a_at) / RFU CAMK2N1 (11719241_x_at) / Fold change /veh CAMK2N1 (11719241_x_at) / RFU C5orf56 (11738088_a_at) / Fold change /veh C5orf56 (11738088_a_at) / RFU OLFML3 (11715873_a_at) / Fold change /veh OLFML3 (11715873_a_at) / RFU LOC100653217 /// NTM (11731650_a_at) / Fold change /veh LOC100653217 /// NTM (11731650_a_at) / RFU MAPK11 (11762145_a_at) / Fold change /veh MAPK11 (11762145_a_at) / RFU FIZ1 (11724087_x_at) / Fold change /veh FIZ1 (11724087_x_at) / RFU OASL (11726364_x_at) / Fold change /veh OASL (11726364_x_at) / RFU SOX15 (11748057_x_at) / Fold change /veh SOX15 (11748057_x_at) / RFU CD79A (11719716_a_at) / Fold change /veh CD79A (11719716_a_at) / RFU HIST1H1D (11736915_at) / Fold change /veh HIST1H1D (11736915_at) / RFU CASKIN2 (11723855_a_at) / Fold change /veh CASKIN2 (11723855_a_at) / RFU LOC730098 (11760151_x_at) / Fold change /veh LOC730098 (11760151_x_at) / RFU OR4N2 (11742367_at) / Fold change /veh OR4N2 (11742367_at) / RFU PRRT2 (11749266_a_at) / Fold change /veh PRRT2 (11749266_a_at) / RFU SNX32 (11753110_a_at) / Fold change /veh SNX32 (11753110_a_at) / RFU CDHR5 (11726645_a_at) / Fold change /veh CDHR5 (11726645_a_at) / RFU RCAN1 (11760418_a_at) / Fold change /veh RCAN1 (11760418_a_at) / RFU FAM167A (11723789_a_at) / Fold change /veh FAM167A (11723789_a_at) / RFU FAM26E (11764081_at) / Fold change /veh FAM26E (11764081_at) / RFU ISYNA1 (11749810_s_at) / Fold change /veh ISYNA1 (11749810_s_at) / RFU ACY1 (11761880_at) / Fold change /veh ACY1 (11761880_at) / RFU 11764098_at / Fold change /veh 11764098_at / RFU SAMD14 (11745864_x_at) / Fold change /veh SAMD14 (11745864_x_at) / RFU NPB (11741838_a_at) / Fold change /veh NPB (11741838_a_at) / RFU TMPRSS6 (11731388_a_at) / Fold change /veh TMPRSS6 (11731388_a_at) / RFU KRTAP10-2 (11738614_at) / Fold change /veh KRTAP10-2 (11738614_at) / RFU ARHGAP8 /// PRR5-ARHGAP8 (11727945_x_at) / Fold change /veh ARHGAP8 /// PRR5-ARHGAP8 (11727945_x_at) / RFU KRTAP5-7 /// NADSYN1 (11734609_at) / Fold change /veh KRTAP5-7 /// NADSYN1 (11734609_at) / RFU RASL12 (11751679_a_at) / Fold change /veh RASL12 (11751679_a_at) / RFU CDKN2B (11736163_a_at) / Fold change /veh CDKN2B (11736163_a_at) / RFU PRF1 (11729649_at) / Fold change /veh PRF1 (11729649_at) / RFU, ZNF638 /// ZNF638-IT1 / Fold change vs veh, ZNF638 /// ZNF638-IT1 / RFU, PANK3 / Fold change vs veh, PANK3 / RFU, SH3YL1 / Fold change vs veh, SH3YL1 / RFU, ZEB2 / Fold change vs veh, ZEB2 / RFU, NRIP1 / Fold change vs veh, NRIP1 / RFU, PTTG1IP / Fold change vs veh, PTTG1IP / RFU, CAPN2 / Fold change vs veh, CAPN2 / RFU, MED14 / Fold change vs veh, MED14 / RFU, SNORA58 / Fold change vs veh, SNORA58 / RFU, C1orf63 / Fold change vs veh, C1orf63 / RFU, LRRFIP1 / Fold change vs veh, LRRFIP1 / RFU, NDUFAF7 / Fold change vs veh, NDUFAF7 / RFU, SLC12A2 / Fold change vs veh, SLC12A2 / RFU, IBTK / Fold change vs veh, IBTK / RFU, ESF1 / Fold change vs veh, ESF1 / Fold change vs veh, TMEM50B / RFU, TAOK1 / Fold change vs veh, TAOK1 / RFU, ACBD3 / Fold change vs veh, ACBD3 / RFU, TMA16 / Fold change vs veh, TMA16 / RFU, RWDD3 / Fold change vs veh, RWDD3 / RFU, BCAT1 / Fold change vs veh, BCAT1 / RFU, EDEM3 / Fold change vs veh, EDEM3 / RFU, TMEM33 / Fold change vs veh, TMEM33 / RFU, WDR75 / Fold change vs veh, WDR75 / RFU, AHCTF1 / Fold change vs veh, AHCTF1 / RFU, TFRC / Fold change vs veh, TFRC / RFU, ZDHHC17 / Fold change vs veh, ZDHHC17 / RFU, NOM1 / Fold change vs veh, NOM1 / RFU, ARL8B / Fold change vs veh, ARL8B / RFU, ZBTB11 / Fold change vs veh, ZBTB11 / RFU, TAMM41 / Fold change vs veh, TAMM41 / RFU, KIAA1704 /// LOC100996395 / Fold change vs veh, KIAA1704 /// LOC100996395 / RFU, ING1 / Fold change vs veh, ING1 / RFU, TRMT61B / Fold change vs veh, TRMT61B / RFU, FUBP3 / Fold change vs veh, FUBP3 / RFU, TP53 / Fold change vs veh, TP53 / RFU, TNKS2 / Fold change vs veh, TNKS2 / RFU, ZFP14 / Fold change vs veh, ZFP14 / RFU, ACTR2 / Fold change vs veh, ACTR2 / RFU, PPP3R1 / Fold change vs veh, PPP3R1 / RFU, PIK3R1 / Fold change vs veh, PIK3R1 / RFU, HNRNPA1 / Fold change vs veh, HNRNPA1 / RFU, RNF170 / Fold change vs veh, RNF170 / RFU, ZNF28 / Fold change vs veh, ZNF28 / RFU, RNGTT / Fold change vs veh, RNGTT / RFU, OGT / Fold change vs veh, OGT / RFU, BRD1 / Fold change vs veh, BRD1 / RFU, MARS / Fold change vs veh, MARS / RFU, ZNF655 / Fold change vs veh, ZNF655 / RFU, FAHD1 / Fold change vs veh, FAHD1 / RFU, BDP1 / Fold change vs veh, BDP1 / RFU, LRRCC1 / Fold change vs veh, LRRCC1 / RFU, ARID1A / Fold change vs veh, ARID1A / RFU, ZNF146 / Fold change vs veh, ZNF146 / RFU, ZNF330 / Fold change vs veh, ZNF330 / RFU, GPN3 / Fold change vs veh, GPN3 / RFU, C9orf123 / Fold change vs veh, C9orf123 / RFU, N4BP2L2 / Fold change vs veh, N4BP2L2 / RFU, ARFIP1 / Fold change vs veh, ARFIP1 / RFU, FAM179B / Fold change vs veh, FAM179B / RFU, BCL10 / Fold change vs veh, BCL10 / RFU, UHRF1BP1L / Fold change vs veh, UHRF1BP1L / RFU, BET1 / Fold change vs veh, BET1 / RFU, CNOT2 / Fold change vs veh, CNOT2 / RFU, ZNF268 / Fold change vs veh, ZNF268 / Fold change vs veh, ZNF507 / RFU, DGCR2 / Fold change vs veh, DGCR2 / RFU, WDSUB1 / Fold change vs veh, WDSUB1 / Fold change vs veh, HSP90B1 /// MIR3652 / RFU, ADSS / Fold change vs veh, ADSS / RFU, GK / Fold change vs veh, GK / RFU, ZNF148 / Fold change vs veh, ZNF148 / RFU, TAF9 / Fold change vs veh, TAF9 / RFU, SLC1A5 / Fold change vs veh, SLC1A5 / RFU, SLMO2 / Fold change vs veh, SLMO2 / RFU, ABCC4 / Fold change vs veh, ABCC4 / RFU, LOC101060439 /// RAP1B / Fold change vs veh, LOC101060439 /// RAP1B / RFU, RFX7 / Fold change vs veh, RFX7 / RFU, GTPBP10 / Fold change vs veh, GTPBP10 / RFU, CNEP1R1 / Fold change vs veh, CNEP1R1 / RFU, BIVM-ERCC5 /// ERCC5 / Fold change vs veh, BIVM-ERCC5 /// ERCC5 / RFU, ILF3 / Fold change vs veh, ILF3 / RFU 11762660_at / Fold change /veh 11762660_at / RFU VCAN (11757783_s_at) / Fold change /veh VCAN (11757783_s_at) / RFU DDX43 (11728927_at) / Fold change /veh DDX43 (11728927_at) / RFU KRT8 (11758188_x_at) / Fold change /veh KRT8 (11758188_x_at) / RFU NKD1 (11759106_at) / Fold change /veh NKD1 (11759106_at) / RFU SRD5A1 (11742802_a_at) / Fold change /veh SRD5A1 (11742802_a_at) / RFU TPSAB1 /// TPSB2 (11721975_s_at) / Fold change /veh TPSAB1 /// TPSB2 (11721975_s_at) / RFU GSTM3 (11746129_a_at) / Fold change /veh GSTM3 (11746129_a_at) / RFU IL23R (11737362_x_at) / Fold change /veh IL23R (11737362_x_at) / RFU TMEM51 (11727254_a_at) / Fold change /veh TMEM51 (11727254_a_at) / RFU PIWIL2 (11732686_x_at) / Fold change /veh PIWIL2 (11732686_x_at) / RFU ORM1 (11744905_x_at) / Fold change /veh ORM1 (11744905_x_at) / RFU CCDC152 (11743942_at) / Fold change /veh CCDC152 (11743942_at) / RFU ECM1 (11717891_a_at) / Fold change /veh ECM1 (11717891_a_at) / RFU IL23R (11748794_a_at) / Fold change /veh IL23R (11748794_a_at) / RFU TNFAIP8L3 (11732012_x_at) / Fold change /veh TNFAIP8L3 (11732012_x_at) / RFU MBOAT4 (11741988_at) / Fold change /veh MBOAT4 (11741988_at) / RFU 11764193_at / Fold change /veh 11764193_at / RFU TMEM53 (11763286_at) / Fold change /veh TMEM53 (11763286_at) / RFU MAGEB2 (11727129_at) / Fold change /veh MAGEB2 (11727129_at) / RFU TMEM200A (11744735_a_at) / Fold change /veh TMEM200A (11744735_a_at) / RFU CCDC152 (11751479_a_at) / Fold change /veh CCDC152 (11751479_a_at) / RFU FAM211A (11726209_a_at) / Fold change /veh FAM211A (11726209_a_at) / RFU RGS16 (11746705_a_at) / Fold change /veh RGS16 (11746705_a_at) / RFU VCAN (11755009_s_at) / Fold change /veh VCAN (11755009_s_at) / RFU RHOB (11743442_s_at) / Fold change /veh RHOB (11743442_s_at) / RFU RGS16 (11720943_a_at) / Fold change /veh RGS16 (11720943_a_at) / RFU RGS16 (11720944_at) / Fold change /veh RGS16 (11720944_at) / RFU, VPS4B / Fold change vs veh, VPS4B / RFU, CREB1 / Fold change vs veh, CREB1 / RFU, DNAJC13 / Fold change vs veh, DNAJC13 / RFU, GNAQ / Fold change vs veh, GNAQ / RFU, CDK5R1 / Fold change vs veh, CDK5R1 / RFU, ZRANB3 / Fold change vs veh, ZRANB3 / RFU, CUL4A / Fold change vs veh, CUL4A / RFU, CCNY / Fold change vs veh, CCNY / RFU, UFL1 / Fold change vs veh, UFL1 / RFU, COG3 / Fold change vs veh, COG3 / RFU, DIAPH2 / Fold change vs veh, DIAPH2 / RFU, SKA2 / Fold change vs veh, SKA2 / RFU, AFF3 / Fold change vs veh, AFF3 / RFU, LMF1 / Fold change vs veh, LMF1 / RFU, IPO11 / Fold change vs veh, IPO11 / RFU, DFFB / Fold change vs veh, DFFB / RFU, FOXP1 / Fold change vs veh, FOXP1 / RFU, CARD8 / Fold change vs veh, CARD8 / RFU, STRN3 / Fold change vs veh, STRN3 / RFU, ADK / Fold change vs veh, ADK / RFU, RASSF2 / Fold change vs veh, RASSF2 / RFU, WIPF1 / Fold change vs veh, WIPF1 / RFU, LARP1B / Fold change vs veh, LARP1B / RFU, RASA1 / Fold change vs veh, RASA1 / RFU, RB1 / Fold change vs veh, RB1 / RFU, PPFIA1 / Fold change vs veh, PPFIA1 / RFU, MAT2A / Fold change vs veh, MAT2A / RFU, CCT5 / Fold change vs veh, CCT5 / RFU, WDR92 / Fold change vs veh, WDR92 / RFU, CUX1 / Fold change vs veh, CUX1 / RFU, TTC7A / Fold change vs veh, TTC7A / RFU, TMEM135 / Fold change vs veh, TMEM135 / RFU, DEPTOR / Fold change vs veh, DEPTOR / RFU, CPM / Fold change vs veh, CPM / RFU, DNAJB6 / Fold change vs veh, DNAJB6 / RFU, CACNA2D3 / Fold change vs veh, CACNA2D3 / RFU, DTX4 / Fold change vs veh, DTX4 / RFU, TFCP2 / Fold change vs veh, TFCP2 / RFU, GMCL1 /// GMCL1P1 / Fold change vs veh, GMCL1 /// GMCL1P1 / RFU, AEBP2 / Fold change vs veh, AEBP2 / RFU, SNHG1 /// SNORD22 /// SNORD25 /// SNORD26 /// SNORD27 /// SNORD28 /// SNORD29 /// SNORD31 / Fold change vs veh, SNHG1 /// SNORD22 /// SNORD25 /// SNORD26 /// SNORD27 /// SNORD28 /// SNORD29 /// SNORD31 / Fold change (Aza/veh), C12orf56 (ProbeSet 11735607_a_at) / Fold change (ACY-1035/veh), C12orf56 (ProbeSet 11735607_a_at) / Fold change (Aza/veh), FGFR1OP (ProbeSet 11751329_s_at) / Fold change (ACY-1035/veh), FGFR1OP (ProbeSet 11751329_s_at) / Fold change (Aza/veh), VPS36 (ProbeSet 11739960_a_at) / Fold change (ACY-1035/veh), VPS36 (ProbeSet 11739960_a_at) / RFU SYPL1 (11715823_x_at) / Fold change /veh SYPL1 (11715823_x_at) / RFU IGFBP7 (11715501_s_at) / Fold change /veh IGFBP7 (11715501_s_at) / RFU REEP3 (11722064_at) / Fold change /veh REEP3 (11722064_at) / RFU IGLL1 (11728026_x_at) / Fold change /veh IGLL1 (11728026_x_at): dose or concentration left out as unconfirmed", "details": "MV-4-11 cells, 48 hours"}
{"molecule": "Nc1ncn([C@@H]2O[C@H](CO)[C@@H](O)[C@H]2O)c(=O)n1", "note": "[azacitidine]", "values": [{"measurement": "RFU RNFT2 (11725882_a_at)", "value": 15.64, "unit": "RFU"}]}
